PubChem BioAssay (NCI)
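A five-concentration, 48-hour dose response in 96-well plates underlies each endpoint, interpolated linearly between surrounding concentrations. Definition used: TGI = concentration required for complete inhibition of growth.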

Columns and labels:
Assay in all cases: inhibition of tumour cell growth, NCI panel, 48 h
RXF-631 renal = test system: RXF-631 renal
DMS 273 small cell lung = test system: DMS 273 small cell lung
M19-MEL melanoma = test system: M19-MEL melanoma
XF 498 CNS = test system: XF 498 CNS
DMS 114 small cell lung = test system: DMS 114 small cell lung
MDA-MB-435 = test system: MDA-MB-435
MDA-N = test system: MDA-N
HOP-18 NSCLC = test system: HOP-18 NSCLC
PC-3 prostate = test system: PC-3 prostate

Structure (SMILES) | TGI (RXF-631 renal) [µM] | TGI (DMS 273 small cell lung) [µM] | TGI (M19-MEL melanoma) [µM] | TGI (XF 498 CNS) [µM] | TGI (DMS 114 small cell lung) [µM] | TGI (MDA-MB-435) [µM] | TGI (MDA-N) [nM] | TGI (HOP-18 NSCLC) [µM] | TGI (PC-3 prostate) [µM]
CCOC(=O)Oc1cc2c(c(OC)c1OC)-c1ccc(OC)c(=O)cc1C(NC(C)=O)CC2 (centres undefined) | > 22.5 | > 100 | > 100 | > 100 | 0.0301 | 0.0168 | < 21.6 | > 100 | > 100
ClC/C=C/COC1CCCCO1 (centres undefined) | > 100 | > 100 | > 100 | > 100 | > 100 |  |  | > 100 | 
O=C(CC1OC(O)C(Cl)=C1Cl)c1cccnc1 (centres undefined) | > 100 | > 100 | > 100 | > 100 | > 56.5 |  |  | > 100 | 
O=C(/C=C/c1ccccc1F)c1ccc(Cl)c(Cl)c1 | > 100 | > 100 | 58.1 | 77 | 55.5 |  |  | > 100 | 
Cc1ccc(S(=O)(=O)SC(C)(C)C)cc1 | > 100 | 47.5 | > 100 | 32.1 | 35.6 | 77.6 |  | > 100 | 
